Source: PubChem BioAssay AID1552 (Sanford-Burnham Center for Chemical Genomics, 2009)
The source made the active and inactive calls. How the calls were made is not given here.

Target: Ubiquitin-conjugating enzyme E2 N (Homo sapiens) (UniProt P61088)
Assay: NMR detection of UBE2N ligand binding – biophysical, purified protein (AID 1552)
Conditions: NMR binding to purified UBE2N

Sequence of Ubiquitin-conjugating enzyme E2 N (Homo sapiens) (P61088 whole entry, looked up): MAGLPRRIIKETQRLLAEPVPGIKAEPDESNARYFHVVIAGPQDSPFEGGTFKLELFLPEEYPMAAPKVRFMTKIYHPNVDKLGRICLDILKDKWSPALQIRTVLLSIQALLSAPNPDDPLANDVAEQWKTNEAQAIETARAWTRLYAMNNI

Structure (SMILES)	Kd
Cc1nnc(N2CCN(Cc3ccccc3)CC2)[nH]c1=O	> 4 mM (inactive)
Cc1nn(C)c(C)c1C(=O)O	> 4 mM (inactive)
CCOc1cc(S(=O)(=O)N2CCOCC2)ccc1F	> 4 mM (inactive)
O=C(O)CCc1c[nH]c2ccccc12	> 4 mM (inactive)
CC(C)c1ccc2c(c1O)CC[C@H]1C3=C(CC[C@]21C)C(=O)OC3	> 4 mM (inactive)
Nc1ccn(C2O[C@H](CO)[C@@H](O)[C@H]2O)c(=O)n1 (stereo not given in full)	> 4 mM (inactive)
O=C(O)CCSc1nc2ccccc2s1	> 4 mM (inactive)
CCOc1ccc2nc(NS(C)(=O)=O)sc2c1	> 4 mM (inactive)
Cc1ccc(Nc2nc(N)nc(CC#N)n2)cc1	> 4 mM (inactive)
C[C@@H]1O[C@@H](O[C@H]2[C@H](Oc3cc(O)c4c(=O)cc(-c5ccc(O)cc5)oc4c3)O[C@H](CO)[C@@H](O)[C@@H]2O)[C@H](O)[C@H](O)[C@H]1O	> 4 mM (inactive)
COC(=O)CSc1ncnc2c(C)csc12	> 4 mM (inactive)
CN1CCCCC1c1ccc(-c2cccnc2)nc1 (stereo not given)	> 4 mM (inactive)
COC1(C)CCC2OC2(C)CCC2C1CC2(C)C (stereo not given)	> 4 mM (inactive)
O=C(NCc1ccccc1)c1cnsn1	> 4 mM (inactive)
Cc1noc(C)c1C(=O)Nc1ccc2c(c1)CCC2	> 4 mM (inactive)
Cc1cccc(-n2c(N)cc(=O)[nH]c2=S)c1	> 4 mM (inactive)
CCOC(=O)c1cc(C)n(-n2cnnc2)c1C	> 4 mM (inactive)
NCc1cn2ccccc2n1	> 4 mM (inactive)
CC(=O)Nc1ccc2c(c1)C(=O)N(C1CCCCC1)C2=O	> 4 mM (inactive)
NC(=O)C1CCN(C(=O)c2ccccc2)CC1	> 4 mM (inactive)
COc1cc(NC(=O)c2ccccc2)c(C)cc1N	> 4 mM (inactive)
O=C(Nc1ccccc1Cl)c1cnccn1	> 4 mM (inactive)
O=C(O)c1ccccc1C(=O)NCC1CCCO1 (stereo not given)	> 4 mM (inactive)

Structure (SMILES)	Kd
O=C1Nc2ccccc2C12OCCO2	> 4 mM (inactive)
NCCN=C1NS(=O)(=O)c2ccccc21	> 4 mM (inactive)
COc1ccc(CN2CCC(O)CC2)c(O)c1	> 4 mM (inactive)
CN(C)S(=O)(=O)N1CCc2ccccc21	> 4 mM (inactive)
CC(O)c1nc2ccccc2[nH]1 (stereo not given)	> 4 mM (inactive)
Cc1sc2nc3n(c(=O)c2c1C)CCCS3	> 4 mM (inactive)
O=c1c2c(nc3nc(COc4ccccc4)[nH]n13)CCC2	> 4 mM (inactive)
CC(=O)OCc1cc(=O)n(C)c(=O)n1C	> 4 mM (inactive)
N[C@@H](CCC(=O)N[C@@H](CS)C(=O)NCC(=O)O)C(=O)O	> 4 mM (inactive)
NC(=O)C1CCCN1S(=O)(=O)c1ccc(F)cc1 (stereo not given)	> 4 mM (inactive)
Nc1nnc(COc2cccc(C(F)(F)F)c2)s1	> 4 mM (inactive)
CC(C)C(=O)NC(=S)N1CCOCC1	> 4 mM (inactive)
NCc1oc(-c2ccccc2)cc1C(=O)O	> 4 mM (inactive)
CCn1ncc(Cl)c1C(=O)Nc1ccncc1	> 4 mM (inactive)
COc1ccc(CN2CCNC(=O)C2CC(=O)O)cc1C (stereo not given)	> 4 mM (inactive)
COC(=O)c1c(OC)cc2c(c1C)Oc1c(Cl)c(OC(C)=O)c(Cl)c(C)c1C(=O)O2	> 4 mM (inactive)
CNC(=O)C(=O)Nc1c(C)cccc1C	> 4 mM (inactive)
O=c1ccnc(Nc2ccccc2O)[nH]1	> 4 mM (inactive)
N#CCCn1c(=O)oc2ccccc21	> 4 mM (inactive)
Nc1ncnc(NCCO)c1[N+](=O)[O-]	> 4 mM (inactive)
COc1ccc(NC(=O)CCCC(=O)O)c(OC)c1	> 4 mM (inactive)
COc1cc(C)nc(N(CCO)CCO)n1	> 4 mM (inactive)
CC(=O)Nc1cccc(N2CCCC2=O)c1	> 4 mM (inactive)

Structure (SMILES)	Kd
O=C(O)C1CN2CCC1CC2 (stereo not given)	> 4 mM (inactive)
O=S(=O)(CCN1CCCC1)c1ccccc1	> 4 mM (inactive)
CC(=O)O[C@H]1CC[C@@]2(C)C(=CCC3C2CC[C@@]2(C)C3CC[C@@H]2C(C)CCCC(C)C)C1 (stereo not given in full)	> 4 mM (inactive)
COC(=O)C1=CO[C@@H](O[C@@H]2O[C@H](CO)[C@@H](O)[C@H](O)[C@H]2O)[C@@H]2[C@@H](C)[C@@H](O)C[C@H]12	> 4 mM (inactive)
NC(=O)C1CCN(CN2C(=O)c3ccccc3C2=O)CC1	> 4 mM (inactive)
C[C@@H]1CC[C@H]2[C@@H](C)C(=O)O[C@@H]3OC4(C)CC[C@@H]1[C@]32OO4	> 4 mM (inactive)
Nc1ccc(O)cn1	> 4 mM (inactive)
C/C(=C\CO)CC[C@H](C)CCC[C@H](C)CCCC(C)C	> 4 mM (inactive)
O=c1ccc2cc(O[C@@H]3O[C@H](CO)[C@@H](O)[C@H](O)[C@H]3O)c(O)cc2o1	> 4 mM (inactive)
Nc1ncnc2c1ncn2[C@@H]1O[C@H](CO)[C@@H](O)[C@H]1O	> 4 mM (inactive)
Nc1nc(N)nc(N2C(=O)c3ccccc3C2=O)n1	> 4 mM (inactive)
O=C(Nc1ccon1)c1csc2ccccc12	> 4 mM (inactive)
Cc1ccc(/C=C2/NC(=S)NC2=O)s1	> 4 mM (inactive)
COC(=O)CCSCC(=O)Nc1nccs1	> 4 mM (inactive)
CN1CCOc2cc(C(=O)O)ccc21	> 4 mM (inactive)
Cc1ccc(C(O)c2nccn2C)o1 (stereo not given)	> 4 mM (inactive)
O=C1C[C@@H](c2ccc(O)cc2)Oc2cc(O)cc(O)c21	> 4 mM (inactive)
NC(=O)CSc1nc2ccccc2c(=O)[nH]1	> 4 mM (inactive)
Cc1nnc(N2CCN(c3ccccc3)CC2)[nH]c1=O	> 4 mM (inactive)
CC(=O)c1cccc(NS(=O)(=O)N2CCCCC2)c1	> 4 mM (inactive)
O=C(CSc1ncn[nH]1)c1ccccc1	> 4 mM (inactive)
O=C1CSC(c2ccccc2)N1 (stereo not given)	> 4 mM (inactive)
NC(=O)C1CCN(C(=O)c2ccccc2F)CC1	> 4 mM (inactive)

Structure (SMILES)	Kd
Cc1occc1C(=O)Nc1ccc(C(N)=O)cc1	> 4 mM (inactive)
OCC1Cc2ccccc2N1 (stereo not given)	> 4 mM (inactive)
N#CCSc1nc2ccccc2c(=O)n1-c1ccccc1	> 4 mM (inactive)
Nc1nc(-c2nc3ccccc3[nH]2)cs1	> 4 mM (inactive)
CCN1CCC(NC2CCCCNC2=O)CC1 (stereo not given)	> 4 mM (inactive)
CSc1nnc(CN2CCSCC2)n1C	> 4 mM (inactive)
Nc1ncnc(NCCCO)c1[N+](=O)[O-]	> 4 mM (inactive)
COC(=O)C[C@H]1C2(C)CC34OC5(C)O[C@@]6([C@H](OC(C)=O)C(OC(C)=O)[C@]7(C)C(/C(=C(/O)C(C)C)C(=O)O[C@H]7c7ccoc7)[C@@]6(O5)[C@H](OC(C)=O)[C@@]3(O)C2OC(=O)C(C)C)[C@]14C (stereo not given in full)	> 4 mM (inactive)
NCC(N)C(=O)c1ccccc1 (stereo not given)	> 4 mM (inactive)
CC(C)(O)[C@@H]1Cc2cc3ccc(=O)oc3cc2O1	> 4 mM (inactive)
CN(Cc1nc2ccccc2n1C)S(C)(=O)=O	> 4 mM (inactive)
CCOC(=O)CC1Sc2ccccc2NC1=S (stereo not given)	> 4 mM (inactive)
COc1ccccc1-c1noc(-c2ccco2)n1	> 4 mM (inactive)
CC1NC(C(=O)O)Cc2c1[nH]c1ccccc21 (stereo not given)	> 4 mM (inactive)
Oc1ccc(-c2n[nH]c(=S)n2Cc2ccco2)cc1	> 4 mM (inactive)
Nc1nc(-c2ccncc2)cs1	> 4 mM (inactive)
O=S(=O)(c1cccc(Cl)c1)N1CCCC1	> 4 mM (inactive)
S=C(c1ccc(N2CCOCC2)cc1)N1CCCCC1	> 4 mM (inactive)
Cc1ccc(C(=O)CS(C)(=O)=O)cc1	> 4 mM (inactive)
Cc1cc(O)c2c(c1O)C(=O)c1c(O)cc(C)c(O)c1C2=O	> 4 mM (inactive)
O=C(C1CCNCC1)N1CCCCCC1	> 4 mM (inactive)
S=c1ccc(N2CCCCC2)n[nH]1	> 4 mM (inactive)
CC(=O)n1c(N)nc2ccccc21	> 4 mM (inactive)

Structure (SMILES)	Kd
Cn1nnc2c(N3CCC(C(N)=O)CC3)ncnc21	> 4 mM (inactive)
CCOC(=O)Cn1cnc2sc3c(c2c1=O)CCC3	> 4 mM (inactive)
O=c1[nH]cc(S(=O)(=O)N2CCc3ccccc32)c(=O)[nH]1	> 4 mM (inactive)
COC(=O)c1cc2cc(N)ccc2s1	> 4 mM (inactive)
C[C@@H]1O[C@@H](O[C@H]2C[C@@H](O)[C@]3(CO)C4C(CC[C@]3(O)C2)[C@@]2(O)CC[C@H](C3=CC(=O)OC3)[C@@]2(C)C[C@H]4O)[C@H](O)[C@H](O)[C@H]1O (stereo not given in full)	> 4 mM (inactive)
N#Cc1nc(-c2cccs2)oc1N1CCOCC1	> 4 mM (inactive)
Oc1ccccc1-c1nnco1	> 4 mM (inactive)
CCOC(=O)c1nc2ccccc2c(=O)n1N	> 4 mM (inactive)
O=C(Cn1cncn1)c1ccc(F)c(F)c1	> 4 mM (inactive)
O=C(O)c1cnc2sc3ccccc3n2c1=O	> 4 mM (inactive)
COc1ccc(-c2nnc(-c3ccc(N)cc3)o2)cc1	> 4 mM (inactive)
CC1(C)CC(=O)c2sc(N)nc2C1	> 4 mM (inactive)
C=C[C@@]1(C)CC(=O)[C@@]2(O)[C@](C)(O1)[C@@H](OC(C)=O)[C@@H](O)C1C(C)(C)CC[C@H](O)[C@@]12C (stereo not given in full)	> 4 mM (inactive)
Cc1cc(C)c(-c2cc(C(F)(F)F)no2)c(=O)[nH]1	> 4 mM (inactive)
Cc1ccc2c(c1)CC[C@H]1CC(=O)CC[C@]21C	> 4 mM (inactive)
O=S1(=O)NC(=NCc2ccccc2)c2ccccc21	> 4 mM (inactive)
CC(=O)O[C@@H]1CC2C(C)(C)C(=O)C3OC3[C@]2(C)C2CC[C@@]3(C)[C@H](c4ccoc4)OC(=O)C4OC43[C@@]21C (stereo not given in full)	> 4 mM (inactive)
O=c1c(O)c(-c2ccccc2)oc2ccc3occc3c12	> 4 mM (inactive)
Cc1ccc(NC(=O)N2CCC(C(N)=O)CC2)cc1	> 4 mM (inactive)
O=C1C2C3C=CC(C3)C2C(=O)N1c1cccnc1 (stereo not given)	> 4 mM (inactive)
Cc1cc(=O)n(C(N)=S)[nH]1	> 4 mM (inactive)
CC(=O)Nc1cccc(-c2nnc(-c3ccccc3)o2)c1	> 4 mM (inactive)
O=C(O)CCC1=C2c3ccccc3CCN2C(=O)CC1	> 4 mM (inactive)
